“Also recorded” adds a separate entry of the source. Structures can show the parent of a compound that is named as a salt.
How the values were obtained:
Format in all cases: cell-based
GR-LBD fused to Gal4-DBD = target: T1, GR-LBD fused to Gal4-DBD (Homo sapiens, UniProt P04150); test: U2OS-GR-LBD/9xGal4UAS luciferase reporter cell line; conditions: for EC50: read-out: Log EC50 (converted)
T1 construct: expressed in transfected cells; host or cells: U2OS
T1 sequence (P04150 524-758 limits assumed): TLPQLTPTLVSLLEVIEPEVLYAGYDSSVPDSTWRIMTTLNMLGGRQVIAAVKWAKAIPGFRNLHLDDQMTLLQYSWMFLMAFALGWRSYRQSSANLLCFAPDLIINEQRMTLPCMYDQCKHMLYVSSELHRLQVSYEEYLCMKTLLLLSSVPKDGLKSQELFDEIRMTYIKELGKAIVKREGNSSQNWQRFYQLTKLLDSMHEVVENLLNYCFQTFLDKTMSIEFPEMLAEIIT

human GR (full-length) [1] = target: T2, human GR (full-length) (Homo sapiens, UniProt P04150); test: U2OS-GR/3xGRE luciferase reporter cell line (full-length receptor); conditions: for EC50: read-out: Log EC50 (converted)
T2 construct: expression vectors encoding full-length steroid receptors: pcDNA3-hAR and pcDNA3-hGR; host or cells: U2OS
T2 sequence (P04150 1-777): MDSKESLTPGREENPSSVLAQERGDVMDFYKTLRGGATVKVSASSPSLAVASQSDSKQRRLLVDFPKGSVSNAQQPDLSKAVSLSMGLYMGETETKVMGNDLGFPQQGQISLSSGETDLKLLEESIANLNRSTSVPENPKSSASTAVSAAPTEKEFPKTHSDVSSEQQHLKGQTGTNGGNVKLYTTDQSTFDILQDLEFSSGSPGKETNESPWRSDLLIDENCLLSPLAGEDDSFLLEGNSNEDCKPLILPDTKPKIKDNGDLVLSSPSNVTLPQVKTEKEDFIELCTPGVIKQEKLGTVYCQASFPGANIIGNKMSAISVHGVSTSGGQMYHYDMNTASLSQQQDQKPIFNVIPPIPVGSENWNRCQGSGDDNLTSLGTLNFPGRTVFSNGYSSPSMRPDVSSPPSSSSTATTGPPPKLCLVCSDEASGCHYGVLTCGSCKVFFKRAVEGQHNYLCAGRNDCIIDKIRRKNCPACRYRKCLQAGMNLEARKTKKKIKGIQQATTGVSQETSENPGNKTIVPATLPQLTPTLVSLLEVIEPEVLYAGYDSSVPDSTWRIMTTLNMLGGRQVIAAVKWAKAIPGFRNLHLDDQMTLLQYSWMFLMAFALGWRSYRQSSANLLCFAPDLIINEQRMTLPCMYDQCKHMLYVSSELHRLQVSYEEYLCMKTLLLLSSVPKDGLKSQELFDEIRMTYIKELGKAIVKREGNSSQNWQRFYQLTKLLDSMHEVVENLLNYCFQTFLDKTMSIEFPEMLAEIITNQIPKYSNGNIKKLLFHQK

human GR (full-length) [2] = target: T2, human GR (full-length); test: U2OS-GR/MMTV luciferase reporter cell line (full-length receptor); conditions: for EC50: read-out: Log EC50 (converted)
MR-LBD fused to Gal4-DBD = target: T3, MR-LBD fused to Gal4-DBD (Homo sapiens, UniProt P08235); test: U2OS-MR-LBD/9xGal4UAS luciferase reporter cell line; conditions: for EC50: read-out: Log EC50 (converted)
T3 construct: MR-LBD was cloned by RT-PCR from total RNA isolated from HEK293 cells; expressed in transfected cells; host or cells: U2OS
T3 sequence (P08235 726-964 limits assumed): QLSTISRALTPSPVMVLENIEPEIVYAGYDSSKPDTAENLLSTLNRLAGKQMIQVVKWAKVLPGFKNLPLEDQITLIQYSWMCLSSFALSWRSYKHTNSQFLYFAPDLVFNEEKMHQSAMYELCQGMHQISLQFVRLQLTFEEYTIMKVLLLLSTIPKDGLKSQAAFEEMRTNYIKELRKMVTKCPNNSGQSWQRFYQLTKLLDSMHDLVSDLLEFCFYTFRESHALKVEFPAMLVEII

human MR (full-length) = target: T4, human MR (full-length) (Homo sapiens, UniProt P08235); test: U2OS-MR/MMTV luciferase reporter cell line (full-length receptor); conditions: for EC50: read-out: Log EC50 (converted)
T4 construct: expression vectors encoding full-length steroid receptors: pcDNA3-hAR, pcDNA3-hGR and pcDNA3-hMR; expressed in transfected cells; host or cells: U2OS
T4 sequence (P08235 1-984): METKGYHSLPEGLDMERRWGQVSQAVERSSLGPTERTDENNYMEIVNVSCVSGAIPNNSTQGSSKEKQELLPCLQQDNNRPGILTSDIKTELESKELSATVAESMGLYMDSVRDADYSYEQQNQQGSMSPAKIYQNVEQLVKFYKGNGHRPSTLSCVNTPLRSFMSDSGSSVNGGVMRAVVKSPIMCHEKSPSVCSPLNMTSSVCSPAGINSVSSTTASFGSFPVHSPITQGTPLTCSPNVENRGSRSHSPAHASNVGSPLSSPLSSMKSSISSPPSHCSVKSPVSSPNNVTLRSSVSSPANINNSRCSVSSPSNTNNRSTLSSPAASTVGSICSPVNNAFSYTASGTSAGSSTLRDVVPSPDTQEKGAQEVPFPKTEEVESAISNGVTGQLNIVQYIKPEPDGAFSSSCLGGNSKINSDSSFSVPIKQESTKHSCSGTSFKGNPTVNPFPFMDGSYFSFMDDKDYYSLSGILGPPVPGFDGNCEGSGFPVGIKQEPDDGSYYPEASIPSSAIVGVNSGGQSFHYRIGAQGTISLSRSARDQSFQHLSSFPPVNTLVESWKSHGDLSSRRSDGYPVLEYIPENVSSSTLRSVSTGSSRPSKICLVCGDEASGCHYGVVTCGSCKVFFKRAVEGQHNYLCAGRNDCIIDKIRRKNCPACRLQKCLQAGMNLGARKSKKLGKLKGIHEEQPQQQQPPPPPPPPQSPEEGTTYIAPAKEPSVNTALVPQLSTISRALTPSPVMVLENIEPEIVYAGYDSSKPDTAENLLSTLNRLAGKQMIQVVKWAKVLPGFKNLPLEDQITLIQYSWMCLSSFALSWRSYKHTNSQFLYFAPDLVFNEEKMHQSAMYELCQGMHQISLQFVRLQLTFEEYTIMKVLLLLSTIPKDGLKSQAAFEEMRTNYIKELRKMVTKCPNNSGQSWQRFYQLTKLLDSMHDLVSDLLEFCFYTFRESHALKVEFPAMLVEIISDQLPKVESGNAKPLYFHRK

PR-LBD fused to Gal4-DBD = target: T5, PR-LBD fused to Gal4-DBD (Homo sapiens, UniProt P06401); test: U2OS-PR-LBD/9xGal4UAS luciferase reporter cell line; conditions: for IC50: antagonist mode, PR-LBD/9xGal4UAS, log10 of molar IC50, mean ± SEM, read-out: Log IC50 (converted); for EC50: read-out: Log EC50 (converted)
T5 construct: PR-LBD region was PCR amplified using the following primer combination; host or cells: U2OS
T5 sequence (P06401 679-913 limits assumed): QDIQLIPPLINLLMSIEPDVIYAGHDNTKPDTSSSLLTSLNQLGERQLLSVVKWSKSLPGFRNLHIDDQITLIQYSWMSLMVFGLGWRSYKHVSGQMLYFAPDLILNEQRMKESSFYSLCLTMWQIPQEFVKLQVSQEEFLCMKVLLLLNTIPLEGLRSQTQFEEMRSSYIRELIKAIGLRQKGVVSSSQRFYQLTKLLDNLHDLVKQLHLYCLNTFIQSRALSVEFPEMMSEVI

[3] = target: T6, ERβ-LBD fused to Gal4-DBD (Homo sapiens, UniProt Q92731); test: U2OS-ERβ-LBD/9xGal4UAS luciferase reporter cell line; conditions: read-out: Log EC50 (converted)
T6 construct: region comprising ERβ-LBD and a piece of the hinge region; expressed in transfected cells; host or cells: U2OS

human ERβ (full-length) = target: T7, human ERβ (full-length) (Homo sapiens, UniProt Q92731); test: U2OS-ERβ/3xERE luciferase reporter cell line (full-length receptor); conditions: for EC50: read-out: Log EC50 (converted)
T7 construct: expression vectors encoding full-length steroid receptors: pcDNA3-hERα and pcDNA3-ERβ; expressed in transfected cells; host or cells: U2OS
T7 sequence (Q92731 whole entry): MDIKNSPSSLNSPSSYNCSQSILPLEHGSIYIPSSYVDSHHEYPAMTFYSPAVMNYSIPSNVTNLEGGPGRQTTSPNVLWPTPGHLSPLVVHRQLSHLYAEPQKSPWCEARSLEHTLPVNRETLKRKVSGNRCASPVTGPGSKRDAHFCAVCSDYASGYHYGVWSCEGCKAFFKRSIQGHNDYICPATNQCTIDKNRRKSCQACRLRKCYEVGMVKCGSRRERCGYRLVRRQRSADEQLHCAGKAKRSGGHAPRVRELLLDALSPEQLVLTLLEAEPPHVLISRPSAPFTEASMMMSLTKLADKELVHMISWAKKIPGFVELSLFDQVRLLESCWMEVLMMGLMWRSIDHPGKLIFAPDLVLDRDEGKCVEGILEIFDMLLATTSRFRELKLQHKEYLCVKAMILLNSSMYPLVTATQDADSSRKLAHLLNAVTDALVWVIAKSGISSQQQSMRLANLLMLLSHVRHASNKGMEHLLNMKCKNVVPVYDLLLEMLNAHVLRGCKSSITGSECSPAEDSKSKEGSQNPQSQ

T6 sequence (Q92731 264-498 limits assumed): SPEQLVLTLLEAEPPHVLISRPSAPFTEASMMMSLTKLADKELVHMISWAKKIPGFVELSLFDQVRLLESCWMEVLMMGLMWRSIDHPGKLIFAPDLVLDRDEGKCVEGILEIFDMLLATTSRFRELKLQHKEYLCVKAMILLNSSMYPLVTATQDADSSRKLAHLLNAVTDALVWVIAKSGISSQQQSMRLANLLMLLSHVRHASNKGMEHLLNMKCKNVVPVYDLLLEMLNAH

| Compound | EC50 (GR-LBD fused to Gal4-DBD) [µM] | IC50 (PR-LBD fused to Gal4-DBD) [µM] | EC50 (PR-LBD fused to Gal4-DBD) [µM] | EC50 (human GR (full-length) [1]) [µM] | EC50 (human GR (full-length) [2]) [µM] | EC50 [3] [µM] | EC50 (human ERβ (full-length)) [µM] | EC50 (MR-LBD fused to Gal4-DBD) [µM] | EC50 (human MR (full-length)) [µM] | further results |
| --- | --- | --- | --- | --- | --- | --- | --- | --- | --- | --- |
| 4-hydroxy-tamoxifen |  |  |  |  |  |  |  |  |  | Log EC50 (GR-LBD fused to Gal4-DBD; agonist mode, GR-LBD/9xGal4UAS, 20 h, log10 of molar EC50, mean ± SEM): > -5.00 M; Log IC50 (GR-LBD fused to Gal4-DBD; antagonist mode, GR-LBD/9xGal4UAS, in the presence of 5 nM dexamethasone, log10 of molar IC50, mean ± SEM): > -5.00 M; Log EC50 (human GR (full-length) [1]; agonist mode, GR/3xGRE, 20 h, log10 of molar EC50, mean ± SEM): > -5.00 M; Log IC50 (human GR (full-length) [1]; antagonist mode, GR/3xGRE, in the presence of 5 nM dexamethasone, log10 of molar IC50, mean ± SEM): > -5.00 M; Log EC50 (human GR (full-length) [2]; agonist mode, GR/MMTV, 20 h, log10 of molar EC50, mean ± SEM): > -5.00 M; Log IC50 (human GR (full-length) [2]; antagonist mode, GR/MMTV, in the presence of 5 nM dexamethasone, log10 of molar IC50, mean ± SEM): > -5.00 M; Log EC50 (MR-LBD fused to Gal4-DBD; agonist mode, MR-LBD/9xGal4UAS, 20 h, log10 of molar EC50, mean ± SEM): > -5.00 M; Log IC50 (MR-LBD fused to Gal4-DBD; antagonist mode, MR-LBD/9xGal4UAS, in the presence of 1 nM aldosterone, log10 of molar IC50, mean ± SEM): > -5.00 M; Log EC50 (human MR (full-length); agonist mode, MR/MMTV, 20 h, log10 of molar EC50, mean ± SEM): > -5.00 M; Log IC50 (human MR (full-length); antagonist mode, MR/MMTV, in the presence of 1 nM aldosterone, log10 of molar IC50, mean ± SEM): > -5.00 M |
| CC#C[C@]1(O)CC[C@H]2[C@@H]3CCC4=CC(=O)CCC4=C3[C@@H](c3ccc(N(C)C)cc3)C[C@@]21C [Mifepristone (RU486), mifepristone] |  |  |  |  |  |  |  |  |  | activity profile in words (GR-LBD fused to Gal4-DBD; GR LBD format (U2OS-GR-LBD/9xGal4UAS)): very potent pure full antagonist; activity profile in words (human GR (full-length) [1]; full-length GR reporter cell line U2OS-GR/3xGRE): partial agonist/full antagonist; activity profile in words (human GR (full-length) [2]; full-length GR reporter cell line U2OS-GR/MMTV): partial agonist/full antagonist |
| CC(=O)C1(O)CCC2C3CCC4=CC(=O)CCC4(C)C3CCC21C (stereo not drawn) [17α-hydroxyprogesterone] | > 10 | > 10 | > 10 | > 10 | > 10 | > 10 | > 10 |  |  |  |
| C[C@@H]1C[C@H]2[C@@H]3CCC4=CC(=O)C=C[C@]4(C)[C@@]3(F)[C@@H](O)C[C@]2(C)[C@@]1(O)C(=O)CO [Dexamethasone, dexamethasone] |  | > 10 | 4.79 |  |  |  |  |  |  | activity profile in words (MR-LBD fused to Gal4-DBD; MR-LBD expressing reporter cell line, agonist and antagonist mode): only weakly and partially activated; also recorded: pronounced full antagonist effect; activity profile in words (human MR (full-length); full-length MR format, antagonist mode): no sign of antagonistic activity |
| CC(=O)O[C@]1(C(C)=O)CC[C@H]2[C@@H]3C=C(Cl)C4=CC(=O)[C@@H]5C[C@@H]5[C@]4(C)[C@H]3CC[C@@]21C [Cyproterone acetate, cyproterone acetate] |  |  |  |  |  | > 10 | > 10 | > 10 | > 10 | luciferase activity in ERβ reporter cell lines (human ERβ (full-length); ERβ reporter cell lines, even at 10 μM concentration): did not find any sign of luciferase activity |
| CC/C(=C(\c1ccccc1)c1ccc(OCCN(C)C)cc1)c1ccccc1 [Tamoxifen citrate, tamoxifen citrate] | > 10 |  |  | > 10 | > 10 |  |  | > 10 | > 10 |  |
